HELM strings list units from the 5' end as sugar, base in round brackets, then linkage (d deoxyribose, r ribose, m 2'-O-methyl, p phosphodiester). Strings are as the collection lists them, not checked against the first reports. ss, as = sense and antisense strand; [fl2r] = 2'-fluoro
Note: test system not given here.

For this data set the following is noted: siRNA.
“RNA1{m(C)p.r(C)p.m(U)p.r(C)p.m(G)p.r(G)p.m(A)p.r(G)p.m(A)p.r(G)p.m(U)p.r(U)p.m(C)p.r(U)p.m(A)p.r(C)p.m(U)p.r(C)p.r(U)p.r(T)p.r(T)}|RNA2{r(A)p.r(G)p.r(A)p.r(G)p.r(U)p.r(A)p.r(G)p.r(A)p.r(A)p.r(C)p.r(U)p.r(C)p.r(U)p.r(C)p.r(C)p.r(G)p.r(A)p.r(G)p.r(G)p.r(T)p.r(T)}$$$RNA1{StrandType:ss}|RNA2{StrandType:as}$” showed a target mRNA knockdown of 34%.
In the case of “RNA1{[fl2r](U)p.r(C)p.[fl2r](C)p.r(A)p.[fl2r](A)p.r(G)p.[fl2r](C)p.r(U)p.[fl2r](U)p.r(C)p.[fl2r](C)p.r(U)p.[fl2r](C)p.r(G)p.[fl2r](U)p.r(U)p.[fl2r](G)p.r(G)p.[fl2r](U)p.r(T)p.r(T)}|RNA2{r(A)p.r(C)p.r(C)p.r(A)p.r(A)p.r(C)p.r(G)p.r(A)p.r(G)p.r(G)p.r(A)p.r(A)p.r(G)p.r(C)p.[fl2r](U)p.[fl2r](U)p.r(G)p.r(G)p.r(A)p.r(T)p.r(T)}$$$RNA1{StrandType:ss}|RNA2{StrandType:as}$” it was 51%; in that of “RNA1{[fl2r](A)p.r(G)p.[fl2r](C)p.r(C)p.[fl2r](C)p.r(A)p.[fl2r](G)p.r(A)p.[fl2r](U)p.r(A)p.[fl2r](G)p.r(C)p.[fl2r](U)p.r(C)p.[fl2r](U)p.r(U)p.[fl2r](C)p.r(A)p.[fl2r](G)p.r(T)p.r(T)}|RNA2{r(C)p.r(U)p.r(G)p.r(A)p.r(A)p.r(G)p.r(A)p.r(G)p.r(C)p.r(U)p.r(A)p.r(U)p.r(C)p.r(U)p.r(G)p.r(G)p.r(G)p.r(C)p.r(U)p.r(T)p.r(T)}$$$RNA1{StrandType:ss}|RNA2{StrandType:as}$”, 35%; in that of “RNA1{r(G)p.r(G)p.r(C)p.r(U)p.[fl2r](U)p.r(A)p.r(G)p.r(U)p.[fl2r](C)p.r(A)p.r(C)p.r(U)p.r(C)p.r(C)p.r(U)p.r(C)p.r(U)p.r(U)p.r(C)p.r(T)p.r(T)}|RNA2{r(G)p.r(A)p.r(A)p.r(G)p.r(A)p.r(G)p.r(G)p.r(A)p.r(G)p.[fl2r](U)p.r(G)p.r(A)p.r(C)p.[fl2r](U)p.r(A)p.r(A)p.r(G)p.r(C)p.r(C)p.r(T)p.r(T)}$$$RNA1{StrandType:ss}|RNA2{StrandType:as}$”, 68%.
In the case of “RNA1{m(G)p.r(A)p.m(G)p.r(G)p.m(A)p.r(U)p.m(G)p.r(G)p.m(A)p.r(U)p.m(U)p.r(C)p.m(G)p.r(A)p.m(C)p.r(U)p.m(U)p.r(A)p.r(G)p.r(T)p.r(T)}|RNA2{r(C)p.m(U)p.r(A)p.r(A)p.r(G)p.m(U)p.r(C)p.r(G)p.r(A)p.r(A)p.m(U)p.r(C)p.r(C)p.r(A)p.r(U)p.r(C)p.r(C)p.r(U)p.r(C)p.r(T)p.r(T)}$$$RNA1{StrandType:ss}|RNA2{StrandType:as}$” it was 23%; in that of “RNA1{m(G)p.r(G)p.m(U)p.r(A)p.m(G)p.r(A)p.m(A)p.r(U)p.m(A)p.r(G)p.m(G)p.r(U)p.m(U)p.r(U)p.m(U)p.r(C)p.m(C)p.r(C)p.m(C)p.r(T)p.r(T)}|RNA2{r(G)p.r(G)p.r(G)p.r(G)p.r(A)p.r(A)p.r(A)p.r(A)p.r(C)p.r(C)p.r(U)p.r(A)p.r(U)p.r(U)p.r(C)p.r(U)p.r(A)p.r(C)p.r(C)p.r(T)p.r(T)}$$$RNA1{StrandType:ss}|RNA2{StrandType:as}$”, 11%; in that of “RNA1{r(G)p.r(A)p.r(A)p.r(G)p.r(A)p.r(G)p.r(C)p.r(C)p.r(U)p.r(A)p.m(C)p.r(A)p.m(C)p.r(A)p.r(A)p.r(C)p.r(C)p.r(C)p.r(U)p.r(T)p.r(T)}|RNA2{r(A)p.r(G)p.r(G)p.r(G)p.r(U)p.m(U)p.r(G)p.r(U)p.r(G)p.m(U)p.r(A)p.r(G)p.r(G)p.r(C)p.r(U)p.r(C)p.r(U)p.r(U)p.r(C)p.r(T)p.r(T)}$$$RNA1{StrandType:ss}|RNA2{StrandType:as}$”, 74%.

These data come from the OligoGym collection.
